# From patent US4880826A, “Melatonin antagonist” (priority 1986, dated 1989)
# Columns and labels:
# prepubertal male rats = assay: Long-term administration to prepubertal male rats: accessory sex organ development and testosterone; type: in vivo, rat
# Source text: (1) Long-term administration of melatonin (via the drinking water or via intraperitoneal injection) to prepubertal male rats results in retardation of testicular accessory sex organ development.
# (4) Long-term administration of ML-23 alone to prepubertal male rats, enhanced testosterone levels in the blood of the animals.
# adult female rats = assay: Melatonin block of luteinizing hormone secretion and ovulation in adult female rats at proestrus; type: in vivo, rat
# Source text: (2) Melatonin administration to adult female rats in the afternoon of proestrus blocks the phasic secretion of luteinizing hormone and ovulation.
# [1] = test system: Female rats kept under constant illumination; assay: Ovarian cyclicity of female rats kept under constant illumination; type: in vivo, rat
# Melatonin receptor = Melatonin receptor assay using 2-125I-iodo-ML-23; type: binding, rat; settings: female rats: hypothalamus, medulla-pons, hippocampus, cerebellum, striatum, parietal cortex
# Method: Tissue sections or isolated cells were suspended in 10 ml/g ice-cold 0.32M sucrose, homogenized in a teflon-glass homogenizer. The homogenate was centrifuged (10000 g-min) the pellet was discarded and the supernatant centrifuged (68000 g-min). The crude membrane pellet was suspended in 2 vol of 50 mM Tris-HCL buffer, pH 7.4 containing 4 mM CaCl2. 2-^125 I-iodo-ML-23 was prepared by iodination of ML-23 with Na^125 I (Amersham) (20 CI/mmol) in the presence of Iodo-Gen. The principal iodination product, 2-^125 I-iodo-ML 23 (^125 I-MLI-23) was separated from unsubstituted ML-23 as described in Example 2. Aliquots of the membrane preparations (200 μg protein/20 μl) were incubated with 40 μl Trisbuffer containing 20-100 nM ^125 I-MLI-23 for 30 min. at 37° C. on a shaking water bath, in the absence or presence of unlabelled melatonin (50 μM). Membranes were then collected by vacuum filtration using GF/C glass fiber filters and washed with 3×4 ml buffer at 4° C. The filters containing bound ^125 I-ML-23 were assayed for radioactivity using a Packard gamma counter. Specific binding was defined as that displaced by 50 μM of non-radioactive melatonin and ranged from 50 to 60% of the total binding at 50 nM ^125 I-MLI-23. […]
# rat hypothalamus = settings: cited from earlier work
# [2] = oral administration in the presence of melatonin
structure (smiles),measurement,setting,value
"COc1ccc2[nH]cc(CCNc3ccc([N+](=O)[O-])cc3[N+](=O)[O-])c2c1 [ML-23, N-2,4-dinitrophenyl-5-methoxy-tryptamine]",testosterone levels in the blood,prepubertal male rats; long-term administration alone,enhanced
same,effect on melatonin's suppressive effects on prostate and seminal vesicle growth,prepubertal male rats; [2],entirely abolished
same,effect on melatonin's suppressive effects on serum testosterone levels,prepubertal male rats; [2],entirely abolished
same,effect on melatonin block of luteinizing hormone secretion and ovulation,"adult female rats; via the drinking water, female rats given melatonin",prevented the effect of melatonin and normal ovulation occurred
same,ovarian cyclicity re-established by daily melatonin injections,"[1]; rats treated orally with the antagonist, constant illumination",not in rats treated orally with ML-23
COc1ccc2[nH]c([125I])c(CCNc3ccc([N+](=O)[O-])cc3[N+](=O)[O-])c2c1 [^125 I-MLI-23],specific binding in brain regions,Melatonin receptor,found
"COc1ccc2[nH]cc(CCNC(C)=O)c2c1 [melatonin, 5-methoxy-N-acetyl-tryptamine]",testicular accessory sex organ development,prepubertal male rats; long-term administration via the drinking water or intraperitoneal injection,retardation
same,phasic secretion of luteinizing hormone and ovulation,"adult female rats; administration in the afternoon of proestrus, adult female rats",blocks
same,ovarian cyclicity,"[1]; daily melatonin injections, female rats under constant illumination",reestablish ovarian cyclicity
same,stimulated release of dopamine,rat hypothalamus,inhibits
